# Patent US11629171B2, “Beta-hairpin peptidomimetics” (POLYPHOR AG, priority 2017, dated 2023)
# Where a SMILES comes first, the peptide text is derived from it. Bridges are numbered along the chain shown (N, C = ends). Roman numbers before positions name the chains, in order. [ ]: non-standard residue; d: D form. Thr(ol) = C[C@@H](O)[C@H](N)CO; Tle = CC(C)(C)[C@H](N)C(=O)O; Hiv = CC(C)[C@H](O)C(=O)O; dDab = NCC[C@@H](N)C(=O)O; hSer = N[C@@H](CCO)C(=O)O; Dab = NCC[C@H](N)C(=O)O; Dap = NC[C@H](N)C(=O)O
# Experiments:
# Type in all cases: cell-based
# [1] = tested on: Pseudomonas aeruginosa ATCC 27853; conditions: ATCC 27853
# Summary of the method: (§1)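 Peptides are tested in serial two-fold dilutions against about 10^6 CFU/mL in MH-II broth containing 0.002% P-80 (v/v, final). Plates incubate 18-20 h at 35° C, and the MIC is the lowest peptide level (μg/mL) showing no visible growth.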
# [2] = tested on: Acinetobacter baumannii DSM 30008; conditions: DSM 30008
# Summary of the method: as §1
# [3] = tested on: Klebsiella pneumoniae 968733; conditions: 968733
# Summary of the method: as §1
# [4] = tested on: Acinetobacter baumannii 872842; conditions: 872842
# Summary of the method: as §1
# [5] = tested on: Escherichia coli 926415; conditions: 926415
# Summary of the method: as §1
# [6] = tested on: Klebsiella pneumoniae SSI #3010; conditions: SSI #3010
# Summary of the method: as §1
# [7] = tested on: Escherichia coli ATCC 25922; conditions: ATCC 25922
# Summary of the method: as §1
# [8] = tested on: Enterobacter cloacae 848840; conditions: 848840
# Summary of the method: as §1
# [9] = tested on: human red blood cells (hRBC); experiment: Hemolysis; conditions: red cells of human, 1 h, 200
# Summary of the method: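 Hemoglobin release from PBS-washed hRBC at 20% (v/v), incubated 1 h at 37° C with peptides at 200 μg/mL, is measured at 540 nm. Values are blank corrected and given as a fraction of Triton X-100 lysis × 100%.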
MIC [1],MIC [2],MIC [3],MIC [4],MIC [5],MIC [6],MIC [7],MIC [8],SMILES,Hemolysis at 200 μg/mL [9]
0.5 µg/mL,0.0625 µg/mL,0.5 µg/mL,0.0625 µg/mL,0.125 µg/mL,0.25 µg/mL,0.0625 µg/mL,0.125 µg/mL,CC(C)C[C@@H]1NC(=O)[C@H](CCN)NC(=O)[C@H](CCN)NC(=O)[C@H](CC(C)C)NC(=O)[C@@H](CC(C)C)NC(=O)[C@H](CCN)NC(=O)[C@@H](NC(=O)[C@@H](CCN)NC(=O)CC[C@@H]2NC(=O)[C@H](CCN)NC(=O)[C@H](Cc3ccc(O)cc3)NC(=O)[C@@H](NC(=O)[C@@H](O)C(C)C)CSSC[C@@H](C(=O)N[C@H](CO)[C@@H](C)O)NC(=O)[C@H](C(C)(C)C)NC(=O)[C@H](CO)NC(=O)[C@H](Cc3c[nH]c4ccccc34)NC(=O)[C@H](CCO)NC(=O)[C@@H](CCN)NC2=O)CCNC1=O [Ex. 127] (I: H-[Hiv]CY[Dab]E[dDab][hSer]WS[Tle]C[Thr(ol)] / II: [dDab][Dab][Dab][dL]L[Dab][Dab]L; disulfide I:2-I:11; amide I:5-II:N; lactam II:2-II:C),2%
0.125 µg/mL,0.0625 µg/mL,0.25 µg/mL,0.125 µg/mL,0.25 µg/mL,0.0625 µg/mL,0.0625 µg/mL,0.125 µg/mL,CC(C)C[C@@H]1NC(=O)[C@@H](CC(C)C)NC(=O)[C@H](CCN)NC(=O)[C@@H](NC(=O)[C@H](CCN)NC(=O)[C@@H](NC(=O)[C@H](CCN)NC(=O)CC[C@@H]2NC(=O)[C@H](CCN)NC(=O)[C@H](Cc3ccc(O)cc3)NC(=O)[C@@H](NC(=O)[C@@H](O)C(C)C)CSSC[C@@H](C(=O)N[C@H](CO)[C@@H](C)O)NC(=O)[C@H](C(C)(C)C)NC(=O)[C@H](CCO)NC(=O)[C@H](Cc3c[nH]c4ccccc34)NC(=O)[C@H](CO)NC(=O)[C@@H](CCN)NC2=O)[C@@H](C)O)CCNC(=O)[C@H]([C@@H](C)O)NC(=O)[C@H](CCN)NC(=O)[C@H](CCN)NC1=O [Ex. 83] (I: H-[Hiv]CY[Dab]E[dDab]SW[hSer][Tle]C[Thr(ol)] / II: [Dab]T[Dab][Dab][Dab][dL]L[Dab][Dab]T; disulfide I:2-I:11; amide I:5-II:N; lactam II:4-II:C),<1%
0.125 µg/mL,0.0625 µg/mL,0.5 µg/mL,0.25 µg/mL,0.25 µg/mL,0.0625 µg/mL,0.0625 µg/mL,0.125 µg/mL,"CC(=O)N[C@H](C(=O)N[C@H]1CCNC(=O)CC[C@@H](C(=O)N[C@@H](CO)C(N)=O)NC(=O)[C@H](C(C)C)NC(=O)[C@H](CO)NC(=O)[C@H](Cc2c[nH]c3ccccc23)NC(=O)[C@H](CO)NC(=O)[C@@H](CCN)NC(=O)[C@H](CCC(=O)N[C@@H](CCN)C(=O)N[C@H](C(=O)N[C@@H](CN)C(=O)N[C@H]2CCNC(=O)[C@H]([C@@H](C)O)NC(=O)[C@H](CCN)NC(=O)[C@H](CCN)NC(=O)[C@H](CC(C)C)NC(=O)[C@@H](CC(C)C)NC(=O)[C@H](CCN)NC2=O)[C@@H](C)O)NC(=O)[C@H](CN)NC(=O)[C@H](Cc2ccc(O)cc2)NC1=O)C(C)C [Ex. 147] (I: Ac-V[Dab]Y[Dap]E[dDab]SWSVES-NH2 / II: [Dab]T[Dap][Dab][Dab][dL]L[Dab][Dab]T; lactam I:2-I:11, II:4-II:C; amide I:5-II:N)",<1%
0.125 µg/mL,0.0625 µg/mL,0.25 µg/mL,0.125 µg/mL,0.125 µg/mL,0.0625 µg/mL,0.0625 µg/mL,0.5 µg/mL,"CC(=O)N[C@H](C(=O)N[C@H]1CCNC(=O)C[C@@H](C(=O)N[C@@H](CO)C(N)=O)NC(=O)[C@H](C(C)(C)C)NC(=O)[C@H](CO)NC(=O)[C@H](Cc2c[nH]c3ccccc23)NC(=O)[C@H](CCN)NC(=O)[C@@H](CCN)NC(=O)[C@H](CCC(=O)N[C@@H](CCN)C(=O)N[C@H](C(=O)N[C@@H](CN)C(=O)N[C@H]2CCNC(=O)[C@H]([C@@H](C)O)NC(=O)[C@H](CCN)NC(=O)[C@H](CCN)NC(=O)[C@H](CC(C)C)NC(=O)[C@@H](CC(C)C)NC(=O)[C@H](CCN)NC2=O)[C@@H](C)O)NC(=O)[C@H](CO)NC(=O)[C@H](Cc2ccc(O)cc2)NC1=O)C(C)C [Ex. 265] (I: Ac-V[Dab]YSE[dDab][Dab]WS[Tle]DS-NH2 / II: [Dab]T[Dap][Dab][Dab][dL]L[Dab][Dab]T; lactam I:2-I:11, II:4-II:C; amide I:5-II:N)",<1%
